Patent US7795290B2 (Genentech, Inc., priority 2004, dated 2010)

Biological target: T1, AKT1 (Homo sapiens, UniProt P31749)
T1 construct: purchased Upstate 14-276
Test: HTS ATP-utilizing enzyme assay, off-chip mobility-shift (Caliper HTS 250)
Assay type: biochemical
Conditions: kinase named = inhibitory activity/selectivity; test compound 10 μM; active = greater than three-sigma from mean
Method in brief: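 AKT1 activity was measured by off-chip mobility shift (Caliper HTS 250) as the ratio of peptide substrate to phosphorylated product. Test compound was at 10 μM, with 2.5 h incubation at 20–22° C. EDTA wells served as 100% control and DMSO wells as 0%. Hits were called at three-sigma limits.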

T1 sequence (P31749 whole entry): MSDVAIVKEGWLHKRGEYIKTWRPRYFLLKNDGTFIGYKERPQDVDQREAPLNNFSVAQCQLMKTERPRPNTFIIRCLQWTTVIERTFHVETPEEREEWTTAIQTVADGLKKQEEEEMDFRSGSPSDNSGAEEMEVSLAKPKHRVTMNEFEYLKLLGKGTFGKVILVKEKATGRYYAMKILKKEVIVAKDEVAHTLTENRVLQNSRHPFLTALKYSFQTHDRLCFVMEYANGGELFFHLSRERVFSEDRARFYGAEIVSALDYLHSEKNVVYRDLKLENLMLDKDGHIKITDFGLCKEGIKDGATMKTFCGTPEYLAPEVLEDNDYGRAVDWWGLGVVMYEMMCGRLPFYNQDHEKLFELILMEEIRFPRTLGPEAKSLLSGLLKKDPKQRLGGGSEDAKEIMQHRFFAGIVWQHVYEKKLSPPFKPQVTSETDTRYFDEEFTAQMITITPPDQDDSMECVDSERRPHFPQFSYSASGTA

Activity, AKT1:
O=C(c1cccs1)N(CCCN1CCOCC1)c1nc(-c2ccc(N3CCOCC3)cc2)cs1 [N-(4-(4-morpholinophenyl)thiazol-2-yl)-N-(3-morpholinopropyl)thiophene-2-carboxamide]
O=C(c1cccs1)N(CCCN1CCOCC1)c1nc(-c2ccc(Cl)s2)cs1 [N-(4-(5-chlorothiophen-2-yl)thiazol-2-yl)-N-(3-morpholinopropyl)thiophene-2-carboxamide]
COc1ccc2oc(-c3csc(N(CCCN4CCOCC4)C(=O)c4cccs4)n3)cc2c1 [N-(4-(5-methoxybenzofuran-2-yl)thiazol-2-yl)-N-(3-morpholinopropyl)thiophene-2-carboxamide]
Cc1c(-c2csc(N(CCCN3CCOCC3)C(=O)c3cccs3)n2)cnn1-c1ccccc1 [N-(4-(5-methyl-1-phenyl-1H-pyrazol-4-yl)thiazol-2-yl)-N-(3-morpholinopropyl)thiophene-2-carboxamide]
Cc1ccc(-c2csc(N(CCCN3CCOCC3)C(=O)c3cccs3)n2)s1 [N-(4-(5-methylthiophen-2-yl)thiazol-2-yl)-N-(3-morpholinopropyl)thiophene-2-carboxamide]
COc1ccc(-c2csc(N(CCCN3CCOCC3)C(=O)c3cccs3)n2)cn1 [N-(4-(6-methoxypyridin-3-yl)thiazol-2-yl)-N-(3-morpholinopropyl)thiophene-2-carboxamide]
COc1cccc2cc(-c3csc(N(CCCN4CCOCC4)C(=O)c4cccs4)n3)oc12 [N-(4-(7-methoxybenzofuran-2-yl)thiazol-2-yl)-N-(3-morpholinopropyl)thiophene-2-carboxamide]
O=C(c1cccs1)N(CCCN1CCOCC1)c1nc(-c2csc3ccccc23)cs1 [N-(4-(benzo[b]thiophen-3-yl)thiazol-2-yl)-N-(3-morpholinopropyl)thiophene-2-carboxamide]
O=C(c1cccs1)N(CCCN1CCOCC1)c1nc(-c2ccc3c(c2)OCO3)cs1 [N-(4-(benzo[d][1,3]dioxol-5-yl)thiazol-2-yl)-N-(3-morpholinopropyl)thiophene-2-carboxamide]
O=C(c1cccs1)N(CCCN1CCOCC1)c1nc(-c2nc3ccccc3s2)cs1 [N-(4-(benzo[d]thiazol-2-yl)thiazol-2-yl)-N-(3-morpholinopropyl)thiophene-2-carboxamide]
Cn1cccc1C(=O)N(CCCN1CCCC1=O)c1nc(-c2cc3ccccc3o2)cs1 [N-(4-(benzofuran-2-yl)thiazol-2-yl)-1-methyl-N-(3-(2-oxopyrrolidin-1-yl)propyl)-1H-pyrrole-2-carboxamide]
CC(CO)NC(=O)CCN(C(=O)c1cccs1)c1nc(-c2cc3ccccc3o2)cs1 (stereo not drawn) [N-(4-(benzofuran-2-yl)thiazol-2-yl)-N-(3-(1-hydroxypropan-2-ylamino)-3-oxopropyl)thiophene-2-carboxamide]
O=C(CC1NC(=O)NC1=O)NCCCN(C(=O)c1cccs1)c1nc(-c2cc3ccccc3o2)cs1 (stereo not drawn) [N-(4-(benzofuran-2-yl)thiazol-2-yl)-N-(3-(2-(2,5-dioxoimidazolidin-4-yl)acetamido)propyl)thiophene-2-carboxamide]
O=C(c1cccs1)N(CCCN1CCCCC1CCO)c1nc(-c2cc3ccccc3o2)cs1 (stereo not drawn) [N-(4-(benzofuran-2-yl)thiazol-2-yl)-N-(3-(2-(2-hydroxyethyl)piperidin-1-yl)propyl)thiophene-2-carboxamide]
CN(C)CCNC(=O)CCN(C(=O)c1cccs1)c1nc(-c2cc3ccccc3o2)cs1 [N-(4-(benzofuran-2-yl)thiazol-2-yl)-N-(3-(2-(dimethylamino)ethylamino)-3-oxopropyl)thiophene-2-carboxamide]
O=C(c1cccs1)N(CCCN1CCCCC1CO)c1nc(-c2cc3ccccc3o2)cs1 (stereo not drawn) [N-(4-(benzofuran-2-yl)thiazol-2-yl)-N-(3-(2-(hydroxymethyl)piperidin-1-yl)propyl)thiophene-2-carboxamide]
O=C(c1cccs1)N(CCC(=O)N1CCCC1CO)c1nc(-c2cc3ccccc3o2)cs1 (stereo not drawn) [N-(4-(benzofuran-2-yl)thiazol-2-yl)-N-(3-(2-(hydroxymethyl)pyrrolidin-1-yl)-3-oxopropyl)thiophene-2-carboxamide]
O=C(c1cccs1)N(CCCN1CCCC1CO)c1nc(-c2cc3ccccc3o2)cs1 (stereo not drawn) [N-(4-(benzofuran-2-yl)thiazol-2-yl)-N-(3-(2-(hydroxymethyl)pyrrolidin-1-yl)propyl)thiophene-2-carboxamide]
O=C(c1cccs1)N(CCCN1CCCCC1CN1CCCC1)c1nc(-c2cc3ccccc3o2)cs1 (stereo not drawn) [N-(4-(benzofuran-2-yl)thiazol-2-yl)-N-(3-(2-(pyrrolidin-1-ylmethyl)piperidin-1-yl)propyl)thiophene-2-carboxamide]
O=C(CCN(C(=O)c1cccs1)c1nc(-c2cc3ccccc3o2)cs1)NCCO [N-(4-(benzofuran-2-yl)thiazol-2-yl)-N-(3-(2-hydroxyethylamino)-3-oxopropyl)thiophene-2-carboxamide]
COCCNC(=O)CCN(C(=O)c1cccs1)c1nc(-c2cc3ccccc3o2)cs1 [N-(4-(benzofuran-2-yl)thiazol-2-yl)-N-(3-(2-methoxyethylamino)-3-oxopropyl)thiophene-2-carboxamide]
O=C(CN1CCOCC1)NCCCN(C(=O)c1cccs1)c1nc(-c2cc3ccccc3o2)cs1 [N-(4-(benzofuran-2-yl)thiazol-2-yl)-N-(3-(2-morpholinoacetamido)propyl)thiophene-2-carboxamide]
O=C1CCCN1CCCN(C(=O)c1ccco1)c1nc(-c2cc3ccccc3o2)cs1 [N-(4-(benzofuran-2-yl)thiazol-2-yl)-N-(3-(2-oxopyrrolidin-1-yl)propyl)furan-2-carboxamide]
O=C1CCCN1CCCN(C(=O)c1cccs1)c1nc(-c2cc3ccccc3o2)cs1 [N-(4-(benzofuran-2-yl)thiazol-2-yl)-N-(3-(2-oxopyrrolidin-1-yl)propyl)thiophene-2-carboxamide]
CCN(C(C)=O)C1CCN(CCCN(C(=O)c2cccs2)c2nc(-c3cc4ccccc4o3)cs2)C1 (stereo not drawn) [N-(4-(benzofuran-2-yl)thiazol-2-yl)-N-(3-(3-(N-ethylacetamido)pyrrolidin-1-yl)propyl)thiophene-2-carboxamide]
CC(=O)N(C)C1CCN(CCCN(C(=O)c2cccs2)c2nc(-c3cc4ccccc4o3)cs2)C1 (stereo not drawn) [N-(4-(benzofuran-2-yl)thiazol-2-yl)-N-(3-(3-(N-methylacetamido)pyrrolidin-1-yl)propyl)thiophene-2-carboxamide]
CCN(CC)C1CCN(CCCN(C(=O)c2cccs2)c2nc(-c3cc4ccccc4o3)cs2)C1 (stereo not drawn) [N-(4-(benzofuran-2-yl)thiazol-2-yl)-N-(3-(3-(diethylamino)pyrrolidin-1-yl)propyl)thiophene-2-carboxamide]
